Test results from paper PMC11218446, “Antibacterial efficacy and membrane mechanism of action of the Serratia-derived non-ionic lipopeptide, serrawettin W2-FL10” (Microbiology Spectrum, 2024).
“And” between values parts separate entries of the source, which are not always exact repeats. Identical values can stand only once.

Legend:
[1] = system: three S. aureus strains; experiment: Time-kill kinetics, summary; assay type: cell-based, Staphylococcus aureus; conditions: at MIC
Description: Time-kill assays were performed for W2-FL10 against S. aureus ATCC 25923, S. aureus RN4220, and MRSA Xen 30 to determine the bacteriostatic (suppresses growth) or bactericidal (>3 log reduction in CFUs) activity of the compound, allowing for the determination of cell survival percentage per minute ([19]).
To determine the kill rate of the lipopeptide, exponentially growing S. aureus strains were prepared as described in the “Antibacterial activity: broth microdilution assay” section (OD600 = 0.4, ~10^7 CFU/mL; 1:20 dilution was conducted to obtain ~10^5 CFU/mL) ([24], [55]). Thereafter, 200 µL of the bacterial suspension (in MHB) was dispensed into a clear 96-well plate containing 12.5 or 25 µg/mL of W2-FL10, and plates were incubated at 37°C. Aliquots of 20 µL were collected at different time intervals (0, 1, 2, 4, 8, and 24 h), diluted in 180 µL PBS in a clear 96-well plate (from 10^−2 to 10^−8), and 100 µL of the respective dilution was spread onto LB agar plates. Undiluted samples of 20 µL were spot-plated onto LB agar to confirm the absence of cells at 8 and/or 24 h. The LB agar plates were then incubated overnight at 37°C and the CFU/mL was determined. A positive control of bacterial cells without peptide and a negative control with only LB were included. All the tests were performed in triplicate, with independent duplicates. […]

[2] = system: S. aureus ATCC 25923; experiment: Broth microdilution assay (OD 600 nm); assay type: cell-based, Staphylococcus aureus
Description: (§1) Serrawettin W2-FL10 (95% pure) was tested for antibacterial activity using a broth microdilution susceptibility assay ([6]), with melittin included as an antibiotic control. The serrawettin W2-FL10 was prepared in 70% MeCN to 1.00 mg/mL, from which aliquots were prepared using 70% MeCN to a concentration of 50 µg/mL or 500 µg/mL, while aliquots of melittin were prepared using analytical quality H2O to 128 µg/mL. Fifty microliters of the respective W2-FL10 aliquots or melittin were dispensed into a clear 96-well plate and a microdilution (in 70% MeCN for W2-FL10 or analytical quality H2O for melittin) was performed within the plate. The plate was air-dried to remove the solvent and placed in a desiccator with chloroform for 20 min for sterilization.
(§2) All the cultures (inoculated into 5 mL MHB, or 5 mL TSB for Listeria and Enterococcus strains) were incubated at 37°C to reach an optical density (OD) of 0.4 at 600 nm (∼10^7 CFU/mL). A 1:20 dilution of the test strain (final concentration of ∼10^5 CFU/mL) was prepared and 100 µL was dispensed into each well (final concentration of W2-FL10 at 1.5–125 µg/mL and melittin at 2–32 µg/mL). Sterile broth and the OD-adjusted inoculum were included as positive controls, while sterile broth (no inoculum) was included as a negative control. The 96-well plate was incubated for 18 h at 37°C. All the tests were performed in triplicate, with independent duplicates. Following incubation, the absorbance was measured using a microtiter plate reader at 600 nm. The 50% growth inhibition concentration (IC50) was determined using GraphPad Prism version 5 for Windows [GraphPad Software, San Diego, USA (www.graphpad.com)]. A sigmodal curve with variable slope was fitted to each set of dose-repose data according to Rautenbach et al. ([17]) using equation (1):
(§3) (1) Y=bottom+(top−bottom)/1+10^logIC50×Activity slope
(§4) The “top” and “bottom” are the maximum and minimum inhibition responses, respectively, for a particular set of dose-response data, while the activity slope is related to the Hill slope of a sigmoidal binding curve ([16]). […] The MIC value was determined for each set of dose-response data as the lowest concentration, resulting in ≥90% inhibition of the target cell growth. In addition to the MIC and IC50 inhibition parameters, an inhibition concentration factor (ICF), was calculated as outlined in Rautenbach et al. ([17]). The ICF is indicative of the concentration increase from the highest concentration where no activity is observed to the MIC of a compound.

[3] = system: S. aureus RN4220; experiment: Membrane depolarization assay, DiSC3(5); assay type: cell-based, Staphylococcus aureus
Description: (§5) The membrane depolarization capability (ability to disrupt membrane potential) of the W2-FL10 against S. aureus ATCC 25923, S. aureus RN4220, or MRSA Xen 30 was determined using the voltage-sensitive fluorescent probe, DiSC3(5) ([20]). Briefly, black 96-well plates were prepared with W2-FL10 at 12.5 µg/mL and 25 µg/mL, while 4 and 8 µg/mL of melittin were used as a positive depolarization control, and the plates were air dried as described in the “Antibacterial activity: broth microdilution assay” section. The S. aureus strains were inoculated into MHB and grown to the mid-log phase (OD600 of 0.5–0.6). Cells were harvested by centrifugation at 3,000 rpm for 10 min and resuspended in HEPES buffer (5 mM, pH 7.4, containing 20 mM glucose; 100 mM KCl) to OD600 of 0.05. Thereafter, DiSC3(5) (stock concentration of 400 µM in 100% DMSO) was added to the cell suspension to a final concentration of 0.4 µM, and cells were incubated in the dark at room temperature for 40 min. Cell suspensions (100 µL) were then dispensed into the wells of the black 96-well plate. Sterile broth and the OD-adjusted inoculum with DiSC3(5) were included as a non-fluorescent control, sterile broth with DiSC3(5) was included as a sterility control, and melittin was included as membrane depolarization control. All the tests were performed in triplicate, with independent duplicates. Fluorometric readings of the plate were conducted at 1 min intervals over 12 min (readings began 60 s after cells were added to the plates) using a Tecan Spark at 622 nm excitation wavelength and 670 nm emission wavelength. Statistical comparison of the kinetic trends elicited by the treatment with peptide with the control (cells alone) was done using two-way ANOVA with Bonferroni’s post hoc test.

[4] = system: MRSA Xen 30; experiment: Membrane depolarization assay, DiSC3(5); assay type: cell-based, Staphylococcus aureus
Description: as §5

[5] = system: S. aureus ATCC 25923; experiment: Membrane depolarization assay, DiSC3(5); assay type: cell-based, Staphylococcus aureus
Description: as §5

[6] = system: E. faecium S1; experiment: Broth microdilution assay (OD 600 nm); assay type: cell-based, Enterococcus faecium
Description: as §1, §2, §3, §4

[7] = 50% growth inhibition, sigmoidal curve fit, n = 3
[8] = inhibition concentration factor

CCCCCCCC1CC(=O)N[C@H](CC(C)C)C(=O)N[C@@H](CO)C(=O)N[C@@H]([C@@H](C)O)C(=O)N[C@H](Cc2ccccc2)C(=O)N[C@@H](CC(C)C)C(=O)O1 (stereo partly drawn) [W2-FL10, serrawettin W2-FL10]
time within which >90% bactericidal action occurred [1]: 4 to 8 h
IC50 ± SD [2, 7]: 5.5 ± 0.3 (3) µg/mL
Selectivity index ([2]; LC50 (CHO)/IC50): 5.3
ICF (MIC/IC50)^2 [2, 8]: 5.2
MIC ([2]; ≥90% growth inhibition, OD 600 nm, MHB, 18 h 37°C): 12.5 μg/mL and 12.5 (17.1) μg/mL
increase in DiSC3(5) fluorescent signal, in words ([3]; 12.5 µg/mL, up to 720 s (Fig. 4C)): negligible
time at which the DiSC3(5) fluorescent signal doubled ([3]; 25 µg/mL): 480 s
depolarization, in words ([4]; 12.5 µg/mL, up to 720 s): appreciable depolarization
time at which the DiSC3(5) fluorescent signal doubled ([4]; 25 µg/mL): 420 s
increase in DiSC3(5) fluorescent signal, in words ([5]; 12.5 µg/mL, up to 720 s (Fig. 4A)): negligible
time at which the DiSC3(5) fluorescent signal doubled ([5]; 25 µg/mL): 660 s
IC50 ± SD [6, 7]: 5.4 ± 0.1 (3) µg/mL
Selectivity index ([6]; LC50 (CHO)/IC50): 5.4
ICF (MIC/IC50)^2 [6, 8]: 5.9
MIC ([6]; ≥90% growth inhibition, OD 600 nm, TSB, 18 h 37°C): 12.5 μg/mL and 12.5 (17.1) μg/mL
